# Measurements published in patent US8334366B1, “Mutant lycotoxin-1 peptide sequences for insecticidal and cell membrane altering properties” (The United States of America, as represented by the …, priority 2009, dated 2012).
# What was measured:
# [1] = system: fall armyworm (Spodoptera frugiperda) larvae; assay: Initial screen: lyophilized yeast cultures expressing lycotoxin-1 / NNR mutants mixed with insect diet, armyworm larvae assay; details: lyophilized yeast culture in pYES2-DEST52/INVSc1 mixed with rehydrated insect diet, oral, 20 newly hatched larvae
# [2] = system: fall armyworm (Spodoptera frugiperda) larvae; assay: Lethality of single INVSc1-XI-Lyt-1 yeast strain isolates expressing Lyt-1 toxin variants on xylose plates to fall armyworm larvae; format: in vivo; details: for relative mortality compared with mutants C3 and A6 (frequency analysis) / mortality compared pairwise (C6 vs B9; A6 vs C3), frequency analysis: SAS Proc Freq, data adjusted for colony size, P<0.05; for relative mortality compared with mutants C3 and A6 (frequency analysis): 20-insect sample; for state of armyworms on plates containing cultures expressing variants: compared with INVSc1-XI control plate; for Day 1 (% killed) / Day 2 (% killed): single isolates grown 3 days on CM xylose URA/TRP plates, 4 plates averaged, 20 larvae/plate, adjusted for colony size
# Protocol: Samples of the transformation reactions from each of the multiplex wells were recovered on 86×128 mm rectangular CM glucose URA/TRP-selective plates for 2 days at 30° C. and diluted 10.000-fold in sterile water; then 200 μl was spotted onto the respective CM xylose URA/TRP-selective plates and allowed to grow for 3 days to generate a yeast growth area (spot) expressing toxins. The size of the spot was recorded and used to normalize the percent killed, since the percent is a function of the amount of yeast encountered. Twenty newly hatched armyworm larvae were added to the growth spot on the plate, the plate was covered with a lid having five small 0.4 mm openings in the center protected with cotton organdy cloth, and the lid was sealed to the plate with Microseal ‘A’ film (MJ Research, Waltham, Mass.) cut so that a gasket 5-mm wide could seal the edges. The plates were scored for the number of dead armyworms daily after adding the larvae until the assay was ended. Results from days 1 and 2 were of the greatest importance for a commercially viable insecticide. The multiplexed wells having the mutants showing greatest lethality (positions 8, 9, and 10) were selected and the multiplexed wells containing the lycotoxin-1 inserts in pENTR D TOPO corresponding to those positions were transformed into TOP 10 cells, single colonies picked from spread plates, and a plasmid preparation performed. The sequences of 90 AASM variant single isolates picked from the three most lethal multiplexed wells were determined. Forty-five of these had inserts with complete sequences in the correct orientation. Nine were C3, while 36 of them were unique variants and these were selected for the second lethality assay. They were moved into pSUMOduo/TRP via LR clonase, retransformed into INVSc1-XI yeast, and recovered on CM glucose URA/TRP-selective plates. Single colonies with sequence-verified inserts were picked into CM glucose URA/TRP-selective liquid medium, grown, and diluted 10,000-fold. A 100 μl sample was spotted onto CM xylose URA/TRP-selective plates and analyzed for lethality, along with samples containing C3, in quadruplicate, with 20 newly hatched armyworm larvae added to each plate. The variants were scored for dead armyworms and the percent killed was calculated.
# Single colonies were picked from the multiplexed wells for the mutation positions showing greatest lethality. Growing yeast spots containing the individual variants were tested for lethality to fall armyworm larvae. Percent dead on day 2 for C3, B9, A6, and C6 were 71, 97, 74, and 100%, respectively (Table 2). The two AASM mutants B9 and C6 were more lethal than the NNR mutant C3. The numbers are normalized for diameter of the colony on the xylose plates. […] Frequency analysis was performed using SAS Proc Freq (SAS Institute 1999) with data adjusted for colony size and assuming a conservative 20-insect sample for each treatment.
# [3] = system: INVSc1-XI-Lyt-1 yeast cells; assay: Scanning electron microscopy of yeast strains expressing variants; format: cell-based, Saccharomyces cerevisiae; details: INVSc1-XI-Lyt-1 yeast strain expressing the variant
# Protocol: Yeast cells from the plate were suspended in saline (0.85% NaCl) and centrifuged to remove the residual medium. Following a modified procedure of Bang and Pazirandeh [Bang and Pazirandeh. Physical properties and heavy metal uptake of encapsulated Escherichia coli expressing a metal binding gene (NCP). J. Microencapsul. 1999; 16(4): 489-499], the cell pellet was suspended and fixed in 2.5% glutaraldehyde prepared in 100 mM cacodylate buffer, pH 7.2, for 1 h on ice. To remove remaining glutaraldehyde, the cells were rinsed with the buffer twice and then with distilled water once, allowing several minutes for each step. The cells were dehydrated in solutions containing 50, 70, 80 and 100% ethanol successively for 15 min for each treatment. Cells were mounted on the aluminum stub and placed in the desiccator to dry overnight or until needed. The samples were subjected to scanning electron microscopy and analysis (Zeiss Supra 40 VP).
# transformed host cell = assay: Expression of variant peptide in transformed host cell (membrane crossing, intracellular membranes); format: cell-based; details: expression in a transformed host cell
sequence,measurement,setting,value
IWLTALKFLGKHAAKHLAKQQLSKL [wild-type lycotoxin-1],lethality to armyworms in initial screening,[1],not found to be lethal
"IWLTALKFLQKHAAKHLAKHSLSPW (Completely synthesized from synthetic oligonucleotides) [B9, lycotoxin-1 variant with mutations G10Q, Q20H, Q21S, K24P, L25W]",relative mortality compared with mutants C3 and A6 (frequency analysis),[2],significantly greater than mortality caused by mutants C3 and A6
same,state of armyworms on plates containing cultures expressing variants,[2],much smaller and mostly or all dead
same,Day 1 (% killed),[2],0.0%
same,Day 2 (% killed),[2],97%
same,Day 2 (% killed),[2]; listed as XI Lyt-1 B9,97.2%
same,cell surface morphology in scanning electron micrographs,[3],numerous bulges and irregularities on the surface
"IWLTALKFSGKHAAKHLAKQQLSPW (Completely synthesized from synthetic oligonucleotides) [C6, lycotoxin-1 variant with mutations L9S, K24P, L25W]",relative mortality compared with mutants C3 and A6 (frequency analysis),[2],significantly greater than mortality caused by mutants C3 and A6
same,"mortality compared pairwise (C6 vs B9; A6 vs C3), frequency analysis",[2],not significantly different
same,state of armyworms on plates containing cultures expressing variants,[2],much smaller and mostly or all dead
same,Day 1 (% killed),[2],3.7%
same,Day 2 (% killed),[2],100%
same,Day 2 (% killed),[2]; listed as XI Lyt-1 C6,100.0%
same,cell surface morphology in scanning electron micrographs,[3],numerous bulges and irregularities on the surface
same,build-up of intracellular membranes (tubules) on expression,transformed host cell,significant build-up of intracellular membranes
"IWLTALKHLGKHAAKHLAKQQLSPW (Completely synthesized from synthetic oligonucleotides) [A6, lycotoxin-1 variant with mutations F8H, K24P, L25W]","mortality compared pairwise (C6 vs B9; A6 vs C3), frequency analysis",[2],not significantly different
same,state of armyworms on plates containing cultures expressing variants,[2],much smaller and mostly or all dead
same,Day 1 (% killed),[2],13.2%
same,Day 2 (% killed),[2],74%
same,Day 2 (% killed),[2]; listed as XI Lyt-1 A6,74.1%
same,cell surface morphology in scanning electron micrographs,[3],numerous bulges and irregularities on the surface
